Results taken from the supplement of paper PMC10307832.

How the values were obtained:
Assay in all cases: relative viability (nuclei count vs DMSO), 5 days (fraction); higher = more cells survive
[1] = compound: Cc1ccc(NC(=O)c2ccc(CN3CCN(C)CC3)cc2)cc1Nc1nccc(-c2cccnc2)n1 [Imatinib] + CCNC(=O)c1noc(-c2cc(C(C)C)c(O)cc2O)c1-c1ccc(CN2CCOCC2)cc1 [Luminespib] (partner 0.01 µM)
Method in brief: (§1)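 Relative viability is defined as nuclei in treated wells over nuclei in vehicle wells. Duplicate plates were run and medians reported. Lung cancer cell lines in 1536-well plates were dosed by pin tool one day after seeding, with one drug or with a fixed anchor-drug dose plus five library-drug doses (not always all listed) in √10 steps, and nuclei were counted after 5 days.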

[2] = compound: Cc1ccc(NC(=O)c2ccc(CN3CCN(C)CC3)cc2)cc1Nc1nccc(-c2cccnc2)n1 [Imatinib] + O=C(c1cc(Cc2n[nH]c(=O)c3ccccc23)ccc1F)N1CCN(C(=O)C2CC2)CC1 [Olaparib] (partner 8 µM)
Method in brief: as §1

[3] = compound: Cc1ccc(NC(=O)c2ccc(CN3CCN(C)CC3)cc2)cc1Nc1nccc(-c2cccnc2)n1 [Imatinib] + Nc1ncn([C@H]2C[C@H](O)[C@@H](CO)O2)c(=O)n1 [Decitabine] (partner 2 µM)
Method in brief: as §1

[4] = compound: Cc1ccc(NC(=O)c2ccc(CN3CCN(C)CC3)cc2)cc1Nc1nccc(-c2cccnc2)n1 [Imatinib] + Cc1cc(Nc2cc(N3CCN(C)CC3)nc(Sc3ccc(NC(=O)C4CC4)cc3)n2)n[nH]1 [Tozasertib] (partner 0.1 µM)
Method in brief: as §1

[5] = compound: Cc1ccc(NC(=O)c2ccc(CN3CCN(C)CC3)cc2)cc1Nc1nccc(-c2cccnc2)n1 [Imatinib] + COc1cccc2cc(-c3nc([C@H]4CC[C@H](C(=O)O)CC4)n4ncnc(N)c34)[nH]c12 [OSI-027] (partner 0.5 µM)
Method in brief: as §1

[6] = compound: Cc1ccc(NC(=O)c2ccc(CN3CCN(C)CC3)cc2)cc1Nc1nccc(-c2cccnc2)n1 [Imatinib] + N=C(N)NC(=N)NCCc1ccccc1 [Phenformin] (partner 250 µM)
Method in brief: as §1

[7] = compound: Cc1ccc(NC(=O)c2ccc(CN3CCN(C)CC3)cc2)cc1Nc1nccc(-c2cccnc2)n1 [Imatinib] + Cc1nc(Nc2ncc(C(=O)Nc3c(C)cccc3Cl)s2)cc(N2CCN(CCO)CC2)n1 [Dasatinib] (partner 0.075 µM)
Method in brief: as §1

[8] = compound: Cc1ccc(NC(=O)c2ccc(CN3CCN(C)CC3)cc2)cc1Nc1nccc(-c2cccnc2)n1 [Imatinib] + COc1cc2c(Oc3ccc(NC(=O)C4(C(=O)Nc5ccc(F)cc5)CC4)cc3F)ccnc2cc1OCCCN1CCOCC1 [Foretinib] (partner 0.25 µM)
Method in brief: as §1

[9] = compound: Cc1ccc(NC(=O)c2ccc(CN3CCN(C)CC3)cc2)cc1Nc1nccc(-c2cccnc2)n1 [Imatinib]
Method in brief: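 Nuclei counted with MetaXpress define viability as the ratio of treated to vehicle wells, given as a median across plates. The lung cancer cell lines were in 1536-well plates, pinned with five √10-spaced library-drug doses and imaged at 4× after 5 days and Hoechst staining. Plates passed with control CV below 25% and at least one doubling.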

Row | Cell Line | relative viability ([1]; first compound 0.02 µM) | relative viability ([1]; first compound 0.06325 µM) | relative viability ([1]; first compound 0.2 µM) | relative viability ([1]; first compound 0.6325 µM) | relative viability ([1]; first compound 2 µM) | relative viability ([4]; first compound 0.06325 µM) | relative viability ([4]; first compound 0.2 µM) | relative viability ([4]; first compound 0.6325 µM) | relative viability ([4]; first compound 2 µM) | relative viability ([5]; first compound 0.02 µM) | relative viability ([5]; first compound 0.06325 µM) | relative viability ([5]; first compound 2 µM) | relative viability ([6]; first compound 0.02 µM) | relative viability ([6]; first compound 0.06325 µM) | relative viability ([6]; first compound 0.2 µM) | relative viability ([6]; first compound 0.6325 µM) | other results
1 | NCI-H522 | 1.11 | 1.16 | 1.14 | 1.15 | 1.11 | 0.501 | 0.524 | 0.553 | 0.588 | 1.34 | 0.505 | 0.666 | 0.679 | 0.554 | 0.626 | 0.613 | relative viability ([2]; first compound 0.2 µM): 0.641; relative viability ([2]; first compound 0.6325 µM): 0.606; relative viability ([3]; first compound 0.02 µM): 0.678; relative viability ([3]; first compound 0.2 µM): 0.616; relative viability ([3]; first compound 0.6325 µM): 0.577; relative viability ([3]; first compound 2 µM): 0.675
2 | NCI-H1623 | 0.509 | 0.522 | 0.489 | 0.569 | 0.467 | 0.488 | 0.401 | 0.451 | 0.416 | 0.453 | 0.453 | 0.417 | 0.623 | 0.601 | 0.535 | 0.573 | relative viability ([4]; first compound 0.02 µM): 0.435; relative viability ([5]; first compound 0.2 µM): 0.386; relative viability ([5]; first compound 0.6325 µM): 0.431; relative viability ([6]; first compound 2 µM): 0.571; relative viability ([7]; first compound 0.02 µM): 0.552; relative viability ([7]; first compound 0.06325 µM): 0.539; relative viability ([7]; first compound 0.2 µM): 0.482; relative viability ([7]; first compound 0.6325 µM): 0.537; relative viability ([7]; first compound 2 µM): 0.538; relative viability ([8]; first compound 0.02 µM): 0.872; relative viability ([8]; first compound 0.06325 µM): 0.811; relative viability ([8]; first compound 0.2 µM): 0.749; relative viability ([8]; first compound 0.6325 µM): 0.788; relative viability ([8]; first compound 2 µM): 0.894; relative viability ([9]; 0.02 µM): 0.97; relative viability ([9]; 0.06325 µM): 0.763; relative viability ([9]; 0.2 µM): 0.814; relative viability ([9]; 0.6325 µM): 0.956; relative viability ([9]; 2 µM): 0.947
